Assay results: patent publication US20110281728A1, “METHOD FOR CONTROLLING COLORATION IN TABLE GRAPES BASED ON OLIGOGALACTURONIDES” (CENTRO DE INVESTIGACION EN ALIMENTACION Y DESARROLLO A.C., priority 2008, published 2011)
Marks after values point to notes of the source that are not given here.

System: red table grapes
Test: Grape color in Color Index units for Red Grapes (CIRG) after application to grape plants
Format: in vivo, Vitis vinifera
Details: 500 ppm
Experimental: Control of coloration by means of OGAs determines a new use of these polymers which ensure a controlled ripening and effective coloring, which provide a high quality in table grapes. OGAs were obtained by enzymatic hydrolysis of polygalacturonic acid (PGA), stopping the reaction by heating to 100° C. for 30 minutes. Partial purification was performed by using an ultra-filtration equipment to recover OGAs in the range of 5-10 KDa. For the comparison of the degree of polymerization of 7-20 GP, these were compared with external standards. OGAs were frozen using liquid nitrogen in order to obtain a powdered mixture, which was applied to grape plants in a particular proportion. Six treatments were used: three using different concentrations of OGAs, methyl jasmonate (MeJa), Ethrel and a control (water).
To determine the best way to control the red color in grapes, a series of experiments was performed, wherein doses of the mixture, application times, application conditions, and periods of application were tested, finding that the results are obtained: when the mixture was applied in an amount of 0.25 L per plant during the morning at a temperature of 18-20° C. for a period of two days during the veraison period.

Row | Structure (SMILES) | grape color (CIRG) (1 day post-application) | grape color (CIRG) (5 days post-application) | grape color (CIRG) (10 days post-application) | grape color (CIRG) (15 days post-application) | grape color (CIRG) (20 days post-application)
1 | CC/C=C\CC1C(=O)CCC1CC(=O)OC (stereo not shown) [MeJa, methyl jasmonate] | 1.13^a CIRG | 2.20^a CIRG | 3.41^a CIRG | 3.20^a CIRG | 3.31^b CIRG
2 | O=P(O)(O)CCCl [Ethrel, 2-chloroethyl phosphonic acid] | 1.17^a CIRG | 2.44^a CIRG | 2.96^a CIRG | 3.37^a CIRG | 3.76^a CIRG
